ChEMBL document CHEMBL4420075, “Seriniquinones, melanoma-specific anticancer agents” (2016)

Columns and labels:
Assay type in all cases: functional
MOLT-4 = assay: Growth inhibition of human MOLT4 cells assessed as cell growth incubated for 48 hrs by sulforhodamine B assay; design: concentration or dose not given beside the values
HCC 2998 = assay: Growth inhibition of human HCC2998 cells assessed as cell growth incubated for 48 hrs by sulforhodamine B assay; design: concentration or dose not given beside the values
DU-145 = assay: Growth inhibition of human DU145 cells assessed as cell growth incubated for 48 hrs by sulforhodamine B assay; design: concentration or dose not given beside the values
OVCAR-4 = assay: Growth inhibition of human OVCAR4 cells assessed as cell growth incubated for 48 hrs by sulforhodamine B assay; design: concentration or dose not given beside the values
786-0 = assay: Growth inhibition of human 786-0 cells assessed as cell growth incubated for 48 hrs by sulforhodamine B assay; design: concentration or dose not given beside the values
A498 = assay: Growth inhibition of human A498 cells assessed as cell growth incubated for 48 hrs by sulforhodamine B assay; design: concentration or dose not given beside the values
NCI-H322M = assay: Growth inhibition of human NCI-H322M cells assessed as cell growth incubated for 48 hrs by sulforhodamine B assay; design: scale not given: the % may be the effect or the level left
UACC-62 = assay: Growth inhibition of human UACC62 cells assessed as cell growth incubated for 48 hrs by sulforhodamine B assay; design: concentration or dose not given beside the values
KM12 = assay: Growth inhibition of human KM12 cells assessed as cell growth incubated for 48 hrs by sulforhodamine B assay; design: concentration or dose not given beside the values
U-251 = assay: Growth inhibition of human U251 cells assessed as cell growth incubated for 48 hrs by sulforhodamine B assay; design: concentration or dose not given beside the values
IGROV-1 = assay: Growth inhibition of human IGROV1 cells assessed as cell growth incubated for 48 hrs by sulforhodamine B assay; design: scale not given: the % may be the effect or the level left
MDA-MB-468 = assay: Growth inhibition of human MDA-MB-468 cells assessed as cell growth incubated for 48 hrs by sulforhodamine B assay; design: concentration or dose not given beside the values
NCI-H522 = assay: Growth inhibition of human NCI-H522 cells assessed as cell growth incubated for 48 hrs by sulforhodamine B assay; design: concentration or dose not given beside the values
SK-MEL-2 = assay: Growth inhibition of human SK-MEL-2 cells assessed as cell growth incubated for 48 hrs by sulforhodamine B assay; design: concentration or dose not given beside the values
RXF 393 = assay: Growth inhibition of human RXF393 cells assessed as cell growth incubated for 48 hrs by sulforhodamine B assay; design: concentration or dose not given beside the values
HOP-62 = assay: Growth inhibition of human HOP62 cells assessed as cell growth incubated for 48 hrs by sulforhodamine B assay; design: concentration or dose not given beside the values
MCF7 = assay: Growth inhibition of human MCF7 cells assessed as cell growth incubated for 48 hrs by sulforhodamine B assay; design: concentration or dose not given beside the values
RPMI-8226 = assay: Growth inhibition of human RPMI8226 cells assessed as cell growth incubated for 48 hrs by sulforhodamine B assay; design: concentration or dose not given beside the values
PC-3 = assay: Growth inhibition of human PC3 cells assessed as cell growth incubated for 48 hrs by sulforhodamine B assay; design: concentration or dose not given beside the values
NCI/ADR-RES = assay: Growth inhibition of human NCI/ADR-RES cells assessed as cell growth incubated for 48 hrs by sulforhodamine B assay; design: concentration or dose not given beside the values
CCRF-CEM = assay: Growth inhibition of human CCRF-CEM cells assessed as cell growth incubated for 48 hrs by sulforhodamine B assay; design: concentration or dose not given beside the values
HOP-92 = assay: Growth inhibition of human HOP92 cells assessed as cell growth incubated for 48 hrs by sulforhodamine B assay; design: concentration or dose not given beside the values
CAKI-1 = assay: Growth inhibition of human Caki1 cells assessed as cell growth incubated for 48 hrs by sulforhodamine B assay; design: concentration or dose not given beside the values
HL-60(TB) = assay: Growth inhibition of human HL-60(TB) cells assessed as cell growth incubated for 48 hrs by sulforhodamine B assay; design: concentration or dose not given beside the values
T47D = assay: Growth inhibition of human T47D cells assessed as cell growth incubated for 48 hrs by sulforhodamine B assay; design: concentration or dose not given beside the values
K562 = assay: Growth inhibition of human K562 cells assessed as cell growth incubated for 48 hrs by sulforhodamine B assay; design: concentration or dose not given beside the values
SK-MEL-28 = assay: Growth inhibition of human SK-MEL-28 cells assessed as cell growth incubated for 48 hrs by sulforhodamine B assay; design: concentration or dose not given beside the values
Malme-3M = assay: Growth inhibition of human MALME-3M cells assessed as cell growth incubated for 48 hrs by sulforhodamine B assay; design: scale not given: the % may be the effect or the level left
OVCAR-8 = assay: Growth inhibition of human OVCAR8 cells assessed as cell growth incubated for 48 hrs by sulforhodamine B assay; design: concentration or dose not given beside the values
HCT-116 = assay: Growth inhibition of human HCT116 cells assessed as cell growth incubated for 48 hrs by sulforhodamine B assay; design: concentration or dose not given beside the values
M14 = assay: Growth inhibition of human M14 cells assessed as cell growth incubated for 48 hrs by sulforhodamine B assay; design: concentration or dose not given beside the values
SN12C = assay: Growth inhibition of human SN12C cells assessed as cell growth incubated for 48 hrs by sulforhodamine B assay; design: concentration or dose not given beside the values
NCI-H226 = assay: Growth inhibition of human NCI-H226 cells assessed as cell growth incubated for 48 hrs by sulforhodamine B assay; design: concentration or dose not given beside the values
MDA-MB-435 = assay: Growth inhibition of human MDA-MB-435 cells assessed as cell growth incubated for 48 hrs by sulforhodamine B assay; design: concentration or dose not given beside the values
SR = assay: Growth inhibition of human SR cells assessed as cell growth incubated for 48 hrs by sulforhodamine B assay; design: concentration or dose not given beside the values
COLO 205 = assay: Growth inhibition of human COLO205 cells assessed as cell growth incubated for 48 hrs by sulforhodamine B assay; design: concentration or dose not given beside the values
UACC-257 = assay: Growth inhibition of human UACC257 cells assessed as cell growth incubated for 48 hrs by sulforhodamine B assay; design: concentration or dose not given beside the values
BT-549 = assay: Growth inhibition of human BT549 cells assessed as cell growth incubated for 48 hrs by sulforhodamine B assay; design: concentration or dose not given beside the values
OVCAR-3 = assay: Growth inhibition of human OVCAR3 cells assessed as cell growth incubated for 48 hrs by sulforhodamine B assay; design: concentration or dose not given beside the values
SNB-75 = assay: Growth inhibition of human SNB75 cells assessed as cell growth incubated for 48 hrs by sulforhodamine B assay; design: concentration or dose not given beside the values
SNB-19 = assay: Growth inhibition of human SNB19 cells assessed as cell growth incubated for 48 hrs by sulforhodamine B assay; design: concentration or dose not given beside the values
UO-31 = assay: Growth inhibition of human UO31 cells assessed as cell growth incubated for 48 hrs by sulforhodamine B assay; design: concentration or dose not given beside the values
NCI-H23 = assay: Growth inhibition of human NCI-H23 cells assessed as cell growth incubated for 48 hrs by sulforhodamine B assay; design: concentration or dose not given beside the values
HT-29 = assay: Growth inhibition of human HT-29 cells assessed as cell growth incubated for 48 hrs by sulforhodamine B assay; design: concentration or dose not given beside the values
SK-OV-3 = assay: Growth inhibition of human SKOV3 cells assessed as cell growth incubated for 48 hrs by sulforhodamine B assay; design: concentration or dose not given beside the values
SK-MEL-5 = assay: Growth inhibition of human SK-MEL-5 cells assessed as cell growth incubated for 48 hrs by sulforhodamine B assay; design: concentration or dose not given beside the values
Hs-578T = assay: Growth inhibition of human Hs 578T cells assessed as cell growth incubated for 48 hrs by sulforhodamine B assay; design: concentration or dose not given beside the values
TK-10 = assay: Growth inhibition of human TK10 cells assessed as cell growth incubated for 48 hrs by sulforhodamine B assay; design: concentration or dose not given beside the values
A549 = assay: Growth inhibition of human A549/ATCC cells assessed as cell growth incubated for 48 hrs by sulforhodamine B assay; design: concentration or dose not given beside the values
SF-268 = assay: Growth inhibition of human SF268 cells assessed as cell growth incubated for 48 hrs by sulforhodamine B assay; design: concentration or dose not given beside the values
NCI-H460 = assay: Growth inhibition of human NCI-H460 cells assessed as cell growth incubated for 48 hrs by sulforhodamine B assay; design: concentration or dose not given beside the values
SF-295 = assay: Growth inhibition of human SF295 cells assessed as cell growth incubated for 48 hrs by sulforhodamine B assay; design: concentration or dose not given beside the values
SW-620 = assay: Growth inhibition of human SW620 cells assessed as cell growth incubated for 48 hrs by sulforhodamine B assay; design: concentration or dose not given beside the values
MDA-MB-231 = assay: Growth inhibition of human MDA-MB-231 cells assessed as cell growth incubated for 48 hrs by sulforhodamine B assay; design: concentration or dose not given beside the values
LOX IMVI = assay: Growth inhibition of human LOXIMVI cells assessed as cell growth incubated for 48 hrs by sulforhodamine B assay; design: concentration or dose not given beside the values
SF-539 = assay: Growth inhibition of human SF539 cells assessed as cell growth incubated for 48 hrs by sulforhodamine B assay; design: scale not given: the % may be the effect or the level left
OVCAR-5 = assay: Growth inhibition of human OVCAR5 cells assessed as cell growth incubated for 48 hrs by sulforhodamine B assay; design: scale not given: the % may be the effect or the level left
ACHN = assay: Growth inhibition of human ACHN cells assessed as cell growth incubated for 48 hrs by sulforhodamine B assay; design: scale not given: the % may be the effect or the level left
HCT-15 = assay: Growth inhibition of human HCT15 cells assessed as cell growth incubated for 48 hrs by sulforhodamine B assay; design: scale not given: the % may be the effect or the level left

CC(C)(C)OC(=O)NCC1CN(C(=O)CCc2ccc3c(=O)c4sc5c(=O)c6ccccc6c(=O)c5c4c(=O)c3c2)C1
Activity (MOLT-4): -47.44%
Activity (HCC 2998): -90.99%
Activity (DU-145): -95.53%
Activity (OVCAR-4): -90.58%
Activity (786-0): -48.69%
Activity (A498): 35.61%
Activity (NCI-H322M): -94.65%
Activity (UACC-62): -68.32%
Activity (KM12): -27.78%
Activity (U-251): -70.04%
Activity (IGROV-1): -62.41%
Activity (MDA-MB-468): -50.83%
Activity (NCI-H522): -42.91%
Activity (SK-MEL-2): -50.15%
Activity (RXF 393): -48.97%
Activity (HOP-62): -74.88%
Activity (MCF7): -63.33%
Activity (RPMI-8226): -36.74%
Activity (PC-3): 4.68%
Activity (NCI/ADR-RES): -12.16%
Activity (CCRF-CEM): -45.34%
Activity (HOP-92): -14.16%
Activity (CAKI-1): 0.12%
Activity (HL-60(TB)): -44.47%
Activity (T47D): -33.26%
Activity (K562): -13.04%
Activity (SK-MEL-28): -21.85%
Activity (Malme-3M): -88.84%
Activity (OVCAR-8): -55.88%
Activity (HCT-116): -89.29%
Activity (M14): -97.99%
Activity (SN12C): -79.71%
Activity (NCI-H226): -51.46%
Activity (MDA-MB-435): -97.59%
Activity (SR): -5.83%
Activity (COLO 205): -97.62%
Activity (UACC-257): -95.5%
Activity (BT-549): -94.11%
Activity (OVCAR-3): -33.51%
Activity (SNB-75): -83.64%
Activity (SNB-19): -4.23%
Activity (UO-31): -81.64%
Activity (NCI-H23): -39.91%
Activity (HT-29): -57.09%
Activity (SK-OV-3): -34.85%
Activity (SK-MEL-5): -99.11%
Activity (Hs-578T): -20.36%
Activity (TK-10): -8.18%
Activity (A549): -66.1%
Activity (SF-268): -39.06%
Activity (NCI-H460): -45.51%
Activity (SF-295): -95.8%
Activity (SW-620): -23.01%
Activity (MDA-MB-231): -12.92%
Activity (LOX IMVI): -69.24%

O=c1c2ccccc2c(=O)c2c1sc1c(=O)c3ccc(CCCO)cc3c(=O)c12
Activity (MOLT-4): -48.47%
Activity (HCC 2998): -89.21%
Activity (DU-145): -98.88%
Activity (OVCAR-4): -100%
Activity (786-0): -90.2%
Activity (A498): -93%
Activity (NCI-H322M): -96.79%
Activity (UACC-62): -88.56%
Activity (KM12): -60.46%
Activity (U-251): -92.1%
Activity (IGROV-1): -77.75%
Activity (MDA-MB-468): -69.73%
Activity (NCI-H522): -73.7%
Activity (SK-MEL-2): -72.58%
Activity (RXF 393): -77.25%
Activity (HOP-62): -100%
Activity (SF-539): -100%
Activity (MCF7): -57.56%
Activity (RPMI-8226): -37.51%
Activity (PC-3): -10.27%
Activity (NCI/ADR-RES): -22.56%
Activity (CCRF-CEM): -42.44%
Activity (HOP-92): -25.51%
Activity (CAKI-1): -39.14%
Activity (HL-60(TB)): -39.5%
Activity (T47D): -45.39%
Activity (K562): -26.48%
Activity (SK-MEL-28): -91.59%
Activity (Malme-3M): -94.59%
Activity (OVCAR-8): -30.24%
Activity (HCT-116): -56.49%
Activity (M14): -94.97%
Activity (SN12C): -85.36%
Activity (NCI-H226): -53.49%
Activity (MDA-MB-435): -94.78%
Activity (SR): -22.18%
Activity (COLO 205): -100%
Activity (UACC-257): -98.14%
Activity (BT-549): -95.56%
Activity (OVCAR-3): -43.56%
Activity (SNB-75): -96.48%
Activity (SNB-19): -83.74%
Activity (UO-31): -96.45%
Activity (NCI-H23): -39.8%
Activity (HT-29): -50.87%
Activity (SK-OV-3): -74.3%
Activity (SK-MEL-5): -100%
Activity (Hs-578T): -11.73%
Activity (TK-10): -94.99%
Activity (A549): -66.71%
Activity (SF-268): -52.35%
Activity (NCI-H460): -65.79%
Activity (OVCAR-5): -95.91%
Activity (SF-295): -93.12%
Activity (SW-620): -71.53%
Activity (MDA-MB-231): -36.34%
Activity (ACHN): -100%
Activity (HCT-15): -68.1%
Activity (LOX IMVI): -80.49%
